Data as given in patent US8138168B1 (Takeda Pharmaceutical Company Limited, priority 2007, dated 2012).

target: T1, Recombinant human renin (Homo sapiens, UniProt P00797); assay: In vitro enzymatic activity assay of renin inhibitors (fluorogenic peptide substrate); assay type: biochemical; conditions: isomers separated by preparative SFC; more or less active isomer as renin inhibitor
T1 construct: isolate the active form (residues 67-406); made in house; host or cells: FreeStyle 293-F cells (transient expression of pcDNA3.1(+)/hREN)
T1 sequence (P00797 67-406): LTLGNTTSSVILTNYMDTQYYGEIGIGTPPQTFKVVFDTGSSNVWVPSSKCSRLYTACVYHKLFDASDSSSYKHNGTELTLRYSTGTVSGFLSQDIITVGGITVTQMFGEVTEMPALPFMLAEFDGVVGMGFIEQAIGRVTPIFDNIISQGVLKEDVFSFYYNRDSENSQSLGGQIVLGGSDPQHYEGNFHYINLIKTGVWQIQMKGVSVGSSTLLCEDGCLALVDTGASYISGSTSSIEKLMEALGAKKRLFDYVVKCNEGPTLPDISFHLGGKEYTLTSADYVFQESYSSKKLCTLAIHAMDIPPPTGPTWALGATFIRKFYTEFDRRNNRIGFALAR
Protocol: Test compounds in varying concentrations may be reacted with recombinant human renin in the presence of substrate, e.g., QXL520-γ-Abu-[…](HiLyteFluo488)-Arg-OH (Anaspec, San Jose, Calif.). […] Inhibition constants (IC50) may be calculated by non-linear curve fitting of the compound concentrations and fluorescence intensities to the standard IC50 equation.
Solutions of test compounds in varying concentrations mM final concentration) are prepared in dimethyl sulfoxide (DMSO) and then diluted into assay buffer comprising 50 mM Hepes, 1 mM EDTA, 1 mM DTT, 0.1 mg/mL BSA, 0.01% Brij35, pH 7.4. Alternatively, the assay can be performed with a high BSA concentration, wherein the buffer contains an additional 2% BSA.
Recombinant human renin (3 nM final concentration) is added to the dilutions and pre-incubated with the compounds for 10 minutes at 37° C. […] After pre-incubation, the reaction is initiated with of substrate QXL520-γ-Abu-[…](HiLyteFluo488)-Arg-OH (Anaspec, San Jose, Calif.). The final DMSO in the assay is 5%. The total volume of the reaction mixture is 20 μL, which can be placed on Greiner 384-well small volume plates.
The fluorescence intensity is determined upon the addition of substrate and determined again after incubation at 37° C. for one hour. The fluorescence intensity of a blank (no inhibition) using vehicle alone is also determined. Renin activity is linearly proportional to the change in fluorescence observed (final-initial).

Eutomer / distomer designation of the separated stereoisomers	Molecule
Eutomer	(R)-3-amino-4-(4-chlorophenyl)-1-((S)-3-hydroxy-3-(1-(3-methoxypropyl)-1H-benzo[d]imidazol-2-yl)piperidin-1-yl)butan-1-one [Compound 247]

same assay, conditions: read-out: IC50 of Exemplified Compounds Against Renin

Molecule	IC50
COCCCn1c([C@@H]2CCCN(C(=O)C[C@H](N)Cc3ccc(-c4ccc(C(=O)NCCOC)nc4)cc3)C2)nc2ccccc21 [Compound 195, 5-(4-((R)-2-amino-4-((R)-3-(1-(3-methoxypropyl)-1H-benzo[d]imidazol-2-yl)piperidin-yl)-4-oxobutyl)phenyl)-N-(2-methoxyethyl)picolinamide]	< 100 nM
COCCCn1c([C@@H]2CCCN(C(=O)C[C@H](N)Cc3ccc(-c4ccccc4)cc3)C2)nc2ccccc21 [Compound 124, (R)-3-amino-4-(biphenyl-4-yl)-1-((R)-3-(1-(3-methoxypropyl)-1H-benzo[d]imidazol-2-yl)piperidin-1-yl)butan-1-one]	< 100 nM
CCOC(=O)c1ccccc1NC(=O)NC[C@@H](N)CC(=O)N1CCC[C@@H](c2nc3ccccc3n2CCCOC)C1 [Compound 330, ethyl 2-(3-((S)-2-amino-4-((R)-3-(1-(3-methoxypropyl)-1H-benzo[d]imidazol-2-yl)piperidin-1-yl)-4-oxobutyl)ureido)benzoate]	> 1000 nM
COCCCn1c([C@@H]2CCCN(C(=O)C[C@H](N)CNC(=O)c3cccnc3Oc3ccccc3)C2)nc2ccccc21 [Compound 299, N-((S)-2-amino-4-((R)-3-(1-(3-methoxypropyl)-1H-benzo[d]imidazol-2-yl)piperidin-1-yl)-4-oxobutyl)-2-phenoxynicotinamide]	100 to 1000 nM
COCCCn1c([C@@H]2CCCN(C(=O)C[C@H](N)Cc3ccc(N4CCCC4=O)cc3)C2)nc2ccccc21 [Compound 209, 1-(4-((R)-2-amino-4-((R)-3-(1-(3-methoxypropyl)-1H-benzo[d]imidazol-2-yl)piperidin-1-yl)-4-oxobutyl)phenyl)pyrrolidin-2-one]	100 to 1000 nM
COCCCn1c([C@@H]2CCCN(C(=O)[C@@H]3CN(S(=O)(=O)c4c(Cl)cc(Br)cc4Cl)C[C@H]3N)C2)nc2ccccc21 [Compound 339]	100 to 1000 nM
COCCCn1c([C@@H]2CCCN(C(=O)C[C@H](N)CNS(=O)(=O)c3c(Cl)cccc3Cl)C2)nc2ccccc21 [Compound 290, N-((S)-2-amino-4-((R)-3-(1-(3-methoxypropyl)-1H-benzo[d]imidazol-2-yl)piperidin-1-yl)-4-oxobutyl)-2,6-dichlorobenzenesulfonamide]	100 to 1000 nM
N[C@@H](Cc1ccccn1)C(=O)N1CCCC(c2nc3ccccc3[nH]2)C1 (stereo partly drawn) [Compound 62, (2S)-1-(3-(1H-benzo[d]imidazol-2-yl)piperidin-1-yl)-2-amino-3-(pyridin-2-yl)propan-1-one]	> 1000 nM
COCCCn1c([C@@H]2CCCN(C(=O)C[C@H](N)Cc3ccc4ccccc4c3)C2)nc2ccc(C#N)cc21 [Compound 109, 2-((R)-1-((R)-3-amino-4-(naphthalen-2-yl)butanoyl)piperidin-3-yl)-1-(3-methoxypropyl)-1H-benzo[d]imidazole-6-carbonitrite]	100 to 1000 nM
COCCCn1c([C@@H]2CCCN(C(=O)C[C@H](N)Cc3ccc(-c4ccc(NC(=O)N(C)C)cc4)cc3)C2)nc2ccccc21 [Compound 174, 3-(4′-((R)-2-amino-4-((R)-3-(1-(3-methoxypropyl)-1H-benzo[d]imidazol-2-yl)piperidin-1-yl)-4-oxobutyl)biphenyl-4-yl)-1,1-dimethylurea]	< 100 nM
COCCCn1c([C@@H]2CCCN(C(=O)C[C@H](N)Cc3ccc4ccccc4c3)C2)nc2cccc(C)c21 [Compound 107, (R)-3-Amino-1-((R)-3-(1-(3-methoxypropyl)-7-methyl-1H-benzo[d]imidazol-2-yl)piperidin-1-yl)-4-(naphthalen-2-yl)butan-1-one]	> 1000 nM
COCCCn1c([C@@H]2CCCN(C(=O)C[C@H](N)Cc3ccc(-c4ccc(C(=O)NCC(O)CO)cc4)cc3)C2)nc2ccccc21 (stereo partly drawn) [Compound 181, 4′-((R)-2-amino-4-((R)-3-(1-(3-methoxypropyl)-1H-benzo[d]imidazol-2-yl)piperidin-1-yl)-4-oxobutyl)-N-(2,3-dihydroxypropyl)biphenyl-4-carboxamide]	< 100 nM
COCCCn1c([C@@H]2CCCN(C(=O)C[C@H](N)CNC(=O)c3ccc(-c4ccccc4)o3)C2)nc2ccccc21 [Compound 251, N-((S)-2-amino-4-((R)-3-(1-(3-methoxypropyl)-1H-benzo[d]imidazol-2-yl)piperidin-1-yl)-4-oxobutyl)-5-phenylfuran-2-carboxamide]	< 100 nM
COCCCn1c([C@@H]2CCCN(C(=O)C[C@H](N)Cc3ccc(N4CCC(O)CC4)cc3)C2)nc2ccccc21 [Compound 234, (R)-3-amino-4-(4-(4-hydroxypiperidin-1-yl)phenyl)-1-((R)-3-(1-(3-methoxypropyl)-1H-benzo[d]imidazol-2-yl)piperidin-1-yl)butan-1-one]	> 1000 nM
COCCCn1c([C@@H]2CCCN(C(=O)C[C@H](N)CNC(=O)c3cccc(-c4noc(C)n4)c3)C2)nc2ccccc21 [Compound 303, N-((S)-2-amino-4-((R)-3-(1-(3-methoxypropyl)-1H-benzo[d]imidazol-2-yl)piperidin-1-yl)-4-oxobuty)-3-(5-methyl-1,2,4-oxadiazol-3-yl)benzamide]	100 to 1000 nM
O=C(Nc1cccnc1)N1CCCC(c2nc3ccccc3[nH]2)C1 (stereo not shown) [Compound 20, 3-(1H-benzo[d]imidazol-2-yl)-N-(pyridin-3-yl)piperidine-1-carboxamide]	> 1000 nM

Further lines, results first:

IC50	Molecule
< 100 nM	COCCCn1c([C@@H]2CCCN(C(=O)C[C@H](N)Cc3ccc(-c4ccc(N5CCNC5=O)cc4)cc3)C2)nc2ccccc21 [Compound 436, 1-(4′-((R)-2-amino-4-((R)-3-(1-(3-methoxypropyl)-1H-benzo[d]imidazol-2-yl)piperidin-1-yl)-4-oxobutyl)biphenyl-4-yl)imidazolidin-2-one]
< 100 nM	COCCCn1c([C@@H]2CCCN(C(=O)C[C@H](N)Cc3ccc(-c4ccc5[nH]ncc5c4)cc3)C2)nc2c(C)cccc21 [Compound 499, (R)-4-(4-(1H-indazol-5-yl)phenyl)-3-amino-1-((R)-3-(1-(3-methoxypropyl)-4-methyl-1H-benzo[d]imidazol-2-yl)piperidin-1-yl)butan-1-one]
100 to 1000 nM	COCCCn1c([C@@H]2CCCN(C(=O)[C@@H]3CN(S(=O)(=O)c4ccc(C)cc4C)C[C@H]3N)C2)nc2ccccc21 [Compound 383, ((3R,4S)-4-amino-1-(2,4-dimethylphenylsulfonyl)pyrrolidin-3-yl)((R)-3-(1-(3-methoxypropyl)-1H-benzo[d]imidazol-2-yl)piperidin-1-yl)methanone]
100 to 1000 nM	CC(=O)NCCn1c([C@@H]2CCCN(C(=O)C[C@H](N)Cc3ccc(-c4cnc(N)nc4)cc3)C2)nc2ccccc21 [Compound 450, N-(2-(2-((R)-1-((R)-3-amino-4-(4-(2-aminopyrimidin-5-yl)phenyl)butanoyl)piperidin-3-yl)-1H-benzo[d]imidazol-1-yl)ethyl)acetamide]
> 1000 nM	COCCCn1c([C@@H]2CCCN(C(=O)[C@@H]3CN(C(=O)c4ccco4)C[C@H]3N)C2)nc2ccccc21 [Compound 420, ((3R,4S)-4-amino-1-(furan-2-carbonyl)pyrrolidin-3-yl)((R)-3-(1-(3-methoxypropyl)-1H-benzo[d]imidazol-2-yl)piperidin-1-yl)methanone]
100 to 1000 nM	CC(=O)NCCn1c([C@@H]2CCCN(C(=O)C[C@H](N)Cc3ccc(-c4ccc5oc(=O)[nH]c5c4)cc3)C2)nc2ccccc21 [Compound 467, N-(2-(2-((R)-1-((R)-3-amino-4-(4-(2-oxo-2,3-dihydrobenzo[d]oxazol-5-yl)phenyl)butanoyl)piperidin-3-yl)-1H-benzo[d]imidazol-1-yl)ethyl)acetamide]
> 1000 nM	COCCCn1c([C@@H]2CCCN(C(=O)[C@@H]3CN(S(=O)(=O)c4ccccc4C#N)C[C@H]3N)C2)nc2ccccc21 [Compound 427, 2-((3S,4R)-3-amino-4-((R)-3-(1-(3-methoxypropyl)-1H-benzo[d]imidazol-2-yl)piperidine-1-carbonyl)pyrrolidin-1-ylsulfonyl)benzonitrile]
< 100 nM	COCCCn1c([C@@H]2CCCN(C(=O)C[C@H](N)Cc3ccc(-c4ccc5c(c4)OCCN5C)cc3)C2)nc2ccccc21 [Compound 439, (R)-3-amino-1-((R)-3-(1-(3-methoxypropyl)-1H-benzo[d]imidazol-2-yl)piperidin-1-yl)-4-(4-(4-methyl-3,4-dihydro-2H-benzo[b][1,4]oxazin-7-yl)phenyl)butan-1-one]
